Legend:
[1] = molecular target: 5-hydroxytryptamine receptor 2B (Homo sapiens, UniProt P41595); assay type: functional, cell-based
Cannabinoid receptor 1 = Cannabinoid receptor 1 (Homo sapiens, UniProt P21554); assay type: functional, cell-based
Mu-type opioid receptor = Mu-type opioid receptor (Homo sapiens, UniProt P35372)
[2] = molecular target: T1, Alpha-2C adrenergic receptor (Homo sapiens, UniProt P18825); assay type: functional
T1 sequence (P18825 whole entry): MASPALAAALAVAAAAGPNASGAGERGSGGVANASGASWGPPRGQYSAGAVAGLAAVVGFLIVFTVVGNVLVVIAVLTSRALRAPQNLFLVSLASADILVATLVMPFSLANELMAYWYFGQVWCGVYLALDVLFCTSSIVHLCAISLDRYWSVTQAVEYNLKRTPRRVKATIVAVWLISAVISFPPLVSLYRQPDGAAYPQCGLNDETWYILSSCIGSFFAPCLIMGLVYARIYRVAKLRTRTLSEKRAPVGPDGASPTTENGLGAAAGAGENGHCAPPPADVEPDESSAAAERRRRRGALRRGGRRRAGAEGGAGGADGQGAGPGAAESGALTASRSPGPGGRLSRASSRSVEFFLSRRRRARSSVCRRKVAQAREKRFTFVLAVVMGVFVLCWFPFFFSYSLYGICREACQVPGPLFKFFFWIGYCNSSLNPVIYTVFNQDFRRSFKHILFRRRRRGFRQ

[3] = molecular target: Beta-1 adrenergic receptor (Homo sapiens, UniProt P08588); assay type: functional
Adenosine receptor A3 = molecular target: T2, Adenosine receptor A3 (Homo sapiens, UniProt P0DMS8)
T2 sequence (P0DMS8 whole entry): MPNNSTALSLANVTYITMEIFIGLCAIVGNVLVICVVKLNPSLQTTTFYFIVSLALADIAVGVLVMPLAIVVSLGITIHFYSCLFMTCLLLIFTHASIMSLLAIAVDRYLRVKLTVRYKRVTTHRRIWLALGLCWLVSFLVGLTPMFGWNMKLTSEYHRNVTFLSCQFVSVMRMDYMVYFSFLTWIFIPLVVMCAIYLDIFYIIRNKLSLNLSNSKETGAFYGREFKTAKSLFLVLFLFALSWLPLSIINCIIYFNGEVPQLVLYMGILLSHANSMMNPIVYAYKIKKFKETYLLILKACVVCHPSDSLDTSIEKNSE

[4] = molecular target: T3, Alpha-2A adrenergic receptor (Homo sapiens, UniProt P08913); assay type: functional, cell-based
T3 sequence (P08913 whole entry): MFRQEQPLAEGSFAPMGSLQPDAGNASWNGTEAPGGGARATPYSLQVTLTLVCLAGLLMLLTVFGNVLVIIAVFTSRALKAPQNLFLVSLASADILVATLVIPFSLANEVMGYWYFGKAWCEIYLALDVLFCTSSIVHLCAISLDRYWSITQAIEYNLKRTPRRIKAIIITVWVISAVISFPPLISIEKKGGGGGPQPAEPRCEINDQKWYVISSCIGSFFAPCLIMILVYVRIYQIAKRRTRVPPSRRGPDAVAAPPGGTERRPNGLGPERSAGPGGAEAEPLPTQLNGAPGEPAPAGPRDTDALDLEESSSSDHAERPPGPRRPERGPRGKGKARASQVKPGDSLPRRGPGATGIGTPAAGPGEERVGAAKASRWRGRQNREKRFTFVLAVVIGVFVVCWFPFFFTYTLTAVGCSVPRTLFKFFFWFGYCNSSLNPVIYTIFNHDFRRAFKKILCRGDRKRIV

[5] = molecular target: T4, Cholecystokinin receptor type A (Homo sapiens, UniProt P32238)
T4 sequence (P32238 whole entry): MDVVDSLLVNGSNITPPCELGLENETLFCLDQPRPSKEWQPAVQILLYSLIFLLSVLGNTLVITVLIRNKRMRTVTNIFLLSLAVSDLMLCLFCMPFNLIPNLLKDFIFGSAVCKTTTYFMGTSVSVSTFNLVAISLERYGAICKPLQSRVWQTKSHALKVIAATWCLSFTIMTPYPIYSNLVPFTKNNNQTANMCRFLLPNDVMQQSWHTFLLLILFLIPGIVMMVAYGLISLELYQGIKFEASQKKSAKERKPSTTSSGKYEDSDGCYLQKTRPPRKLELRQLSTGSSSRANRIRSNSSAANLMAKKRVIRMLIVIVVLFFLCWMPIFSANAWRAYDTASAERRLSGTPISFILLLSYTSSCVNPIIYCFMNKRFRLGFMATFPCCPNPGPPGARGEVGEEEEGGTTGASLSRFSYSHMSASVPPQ

[6] = molecular target: T5, Gamma-aminobutyric acid receptor subunit alpha-1 (Rattus norvegicus, UniProt P62813); assay type: functional
Thromboxane A2 receptor = molecular target: T6, Thromboxane A2 receptor (Homo sapiens, UniProt P21731)
T6 sequence (P21731 whole entry): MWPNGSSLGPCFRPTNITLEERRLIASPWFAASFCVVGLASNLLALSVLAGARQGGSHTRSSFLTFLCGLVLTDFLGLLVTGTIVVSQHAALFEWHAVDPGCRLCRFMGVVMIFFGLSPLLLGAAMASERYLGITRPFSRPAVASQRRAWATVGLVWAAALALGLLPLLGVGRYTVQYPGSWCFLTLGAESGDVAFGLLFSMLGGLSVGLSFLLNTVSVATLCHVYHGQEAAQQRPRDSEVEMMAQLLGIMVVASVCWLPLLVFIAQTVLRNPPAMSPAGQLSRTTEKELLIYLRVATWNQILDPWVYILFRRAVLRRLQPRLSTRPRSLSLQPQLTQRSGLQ

[7] = molecular target: T5, Gamma-aminobutyric acid receptor subunit alpha-1
Note: assay procedure not described here.

Sequence of Beta-1 adrenergic receptor (P08588 whole entry): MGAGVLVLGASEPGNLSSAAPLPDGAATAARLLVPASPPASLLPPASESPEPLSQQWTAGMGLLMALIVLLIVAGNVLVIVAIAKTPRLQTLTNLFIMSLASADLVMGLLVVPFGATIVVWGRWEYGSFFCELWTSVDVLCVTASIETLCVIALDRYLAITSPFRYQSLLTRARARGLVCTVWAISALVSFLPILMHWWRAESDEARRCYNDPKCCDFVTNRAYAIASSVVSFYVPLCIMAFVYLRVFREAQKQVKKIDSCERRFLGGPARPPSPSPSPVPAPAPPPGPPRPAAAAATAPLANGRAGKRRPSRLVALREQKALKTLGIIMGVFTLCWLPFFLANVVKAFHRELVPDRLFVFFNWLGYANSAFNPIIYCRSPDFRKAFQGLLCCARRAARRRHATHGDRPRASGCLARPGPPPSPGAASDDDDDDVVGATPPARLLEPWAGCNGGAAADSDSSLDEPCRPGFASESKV
T5 sequence (P62813 whole entry): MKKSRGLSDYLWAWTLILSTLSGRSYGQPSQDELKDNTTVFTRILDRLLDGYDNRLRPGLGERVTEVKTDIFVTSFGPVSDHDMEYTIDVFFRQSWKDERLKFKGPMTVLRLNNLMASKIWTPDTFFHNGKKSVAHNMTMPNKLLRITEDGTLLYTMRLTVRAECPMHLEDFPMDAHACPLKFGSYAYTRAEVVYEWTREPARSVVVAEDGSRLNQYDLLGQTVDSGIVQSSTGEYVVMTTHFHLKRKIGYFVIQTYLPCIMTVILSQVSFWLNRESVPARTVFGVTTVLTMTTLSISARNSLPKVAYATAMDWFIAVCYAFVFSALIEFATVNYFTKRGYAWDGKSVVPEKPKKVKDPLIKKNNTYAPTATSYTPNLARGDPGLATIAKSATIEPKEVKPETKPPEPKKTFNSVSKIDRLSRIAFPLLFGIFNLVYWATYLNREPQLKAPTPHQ
Sequence of Mu-type opioid receptor (P35372 whole entry): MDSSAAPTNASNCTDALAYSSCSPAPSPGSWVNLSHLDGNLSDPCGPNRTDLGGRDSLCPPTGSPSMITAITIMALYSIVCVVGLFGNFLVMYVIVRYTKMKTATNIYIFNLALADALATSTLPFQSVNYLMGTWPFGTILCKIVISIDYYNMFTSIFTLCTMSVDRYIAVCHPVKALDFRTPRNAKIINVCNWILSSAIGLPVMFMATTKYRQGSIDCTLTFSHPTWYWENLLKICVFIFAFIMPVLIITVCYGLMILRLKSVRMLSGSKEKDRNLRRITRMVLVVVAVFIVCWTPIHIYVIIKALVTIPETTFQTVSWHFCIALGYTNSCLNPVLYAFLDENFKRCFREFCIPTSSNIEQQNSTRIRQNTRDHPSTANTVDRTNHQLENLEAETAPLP
Sequence of 5-hydroxytryptamine receptor 2B (P41595 whole entry): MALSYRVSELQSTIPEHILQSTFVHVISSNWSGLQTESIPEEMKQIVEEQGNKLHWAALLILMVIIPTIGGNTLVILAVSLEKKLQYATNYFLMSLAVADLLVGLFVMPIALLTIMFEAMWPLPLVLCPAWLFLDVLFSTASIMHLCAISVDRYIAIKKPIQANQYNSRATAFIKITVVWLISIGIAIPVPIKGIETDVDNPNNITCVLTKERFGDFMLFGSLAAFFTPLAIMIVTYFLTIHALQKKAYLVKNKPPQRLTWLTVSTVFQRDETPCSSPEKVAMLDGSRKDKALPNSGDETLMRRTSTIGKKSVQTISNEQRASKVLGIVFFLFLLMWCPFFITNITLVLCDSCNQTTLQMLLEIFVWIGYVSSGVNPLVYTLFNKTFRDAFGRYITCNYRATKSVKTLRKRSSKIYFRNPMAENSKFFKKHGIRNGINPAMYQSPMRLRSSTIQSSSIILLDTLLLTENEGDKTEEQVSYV
Sequence of Cannabinoid receptor 1 (P21554 whole entry): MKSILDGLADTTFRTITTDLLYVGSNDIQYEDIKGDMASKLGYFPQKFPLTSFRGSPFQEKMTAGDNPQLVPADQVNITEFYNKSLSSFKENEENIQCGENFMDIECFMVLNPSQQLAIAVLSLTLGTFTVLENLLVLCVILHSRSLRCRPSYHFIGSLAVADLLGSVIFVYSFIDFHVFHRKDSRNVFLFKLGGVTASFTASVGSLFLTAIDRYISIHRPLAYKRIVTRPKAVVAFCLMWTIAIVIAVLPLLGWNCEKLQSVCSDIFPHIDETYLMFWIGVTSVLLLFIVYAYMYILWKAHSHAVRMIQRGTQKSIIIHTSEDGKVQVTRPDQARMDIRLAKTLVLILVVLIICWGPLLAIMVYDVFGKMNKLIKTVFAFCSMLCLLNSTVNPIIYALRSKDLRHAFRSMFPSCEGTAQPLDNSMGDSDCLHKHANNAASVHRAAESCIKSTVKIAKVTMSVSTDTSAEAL

Structure (SMILES) | AC50 [1] | AC50 (Cannabinoid receptor 1) | AC50 (Mu-type opioid receptor) | AC50 [2] | AC50 [3] | AC50 (Adenosine receptor A3) | AC50 [4] | AC50 [5] | AC50 [6] | AC50 (Thromboxane A2 receptor) | AC50 [7]
C[C@H](CCC(=O)O)[C@H]1CC[C@H]2[C@@H]3[C@@H](O)C[C@@H]4C[C@H](O)CC[C@]4(C)[C@H]3CC[C@]12C [URSODIOL] | > 30 µM | > 30 µM | > 30 µM | > 30 µM | > 30 µM | > 30 µM | > 30 µM | > 30 µM | > 30 µM | – | –
CC(C(=O)O)c1ccc2c(c1)[nH]c1ccc(Cl)cc12 (centres undefined) [CARPROFEN] | > 10 µM | – | > 30 µM | > 10 µM | > 30 µM | > 30 µM | > 10 µM | > 30 µM | > 10 µM | > 30 µM | > 10 µM
COc1ccccc1OCCNCC(O)COc1cccc2[nH]c3ccccc3c12 (centres undefined) [CARVEDILOL] | 0.532 µM | > 30 µM | 1.7 µM | 0.061 µM | – | 18.6 µM | > 30 µM | > 30 µM | > 10 µM | > 30 µM | > 10 µM
O=C1CN(/N=C/c2ccc(-c3ccc([N+](=O)[O-])cc3)o2)C(O)=N1 [DANTROLENE] | > 10 µM | – | > 30 µM | > 10 µM | > 10 µM | > 30 µM | > 10 µM | > 10 µM | > 10 µM | > 10 µM | > 10 µM
C[C@@H](NCCCc1cccc(C(F)(F)F)c1)c1cccc2ccccc12 | – | > 30 µM | 2.5 µM | 0.83 µM | 8.8 µM | 8.1 µM | > 30 µM | > 30 µM | > 30 µM | > 30 µM | > 30 µM
CN(C)CC[C@@H](c1ccc(Cl)cc1)c1ccccn1 [DEXCHLORPHENIRAMINE] | > 30 µM | > 30 µM | – | > 30 µM | > 30 µM | > 30 µM | > 30 µM | > 30 µM | > 30 µM | > 30 µM | > 30 µM
CN1C[C@H](C(=O)N[C@]2(C)O[C@@]3(O)[C@@H]4CCCN4C(=O)[C@H](Cc4ccccc4)N3C2=O)C=C2c3cccc4[nH]cc(c34)C[C@H]21 [ERGOTAMINE] | – | > 30 µM | > 30 µM | 0.14 µM | > 30 µM | > 30 µM | > 10 µM | > 30 µM | > 30 µM | – | –
CC(C)c1nc(N(C)S(C)(=O)=O)nc(-c2ccc(F)cc2)c1/C=C/[C@@H](O)C[C@@H](O)CC(=O)O [ROSUVASTATIN] | > 30 µM | > 30 µM | > 30 µM | > 30 µM | > 30 µM | > 30 µM | > 30 µM | > 30 µM | > 30 µM | – | > 30 µM
CCN(CC)CCNC(=O)c1c(C)[nH]c(/C=C2\C(=O)Nc3ccc(F)cc32)c1C [SUNITINIB] | 5.2 µM | > 30 µM | 4.9 µM | 1.77 µM | – | 8.4 µM | > 30 µM | 6.7 µM | > 30 µM | 9.1 µM | > 30 µM
OC[C@H]1O[C@@](CO)(O[C@H]2O[C@H](CO)[C@@H](O)[C@H](O)[C@H]2O)[C@@H](O)[C@@H]1O [SUCROSE] | > 30 µM | > 30 µM | – | – | – | > 30 µM | > 30 µM | > 30 µM | > 30 µM | – | > 30 µM
C[C@@H](Oc1cc(-c2cnn(C3CCNCC3)c2)cnc1N)c1c(Cl)ccc(F)c1Cl [CRIZOTINIB] | 2.7 µM | > 30 µM | > 30 µM | 1.2 µM | > 30 µM | 8.93 µM | > 30 µM | > 30 µM | > 30 µM | > 30 µM | –
COc1ccc(CC2c3cc(OC)c(OC)cc3CC[N+]2(C)CCC(=O)OCCCCCOC(=O)CC[N+]2(C)CCc3cc(OC)c(OC)cc3C2Cc2ccc(OC)c(OC)c2)cc1OC (centres undefined) | > 30 µM | – | – | 2.7 µM | > 30 µM | > 30 µM | > 30 µM | > 30 µM | > 30 µM | > 30 µM | > 30 µM
CC(S)C(=O)NCC(=O)O (centres undefined) [TIOPRONIN] | > 30 µM | > 30 µM | > 30 µM | > 30 µM | > 30 µM | > 30 µM | > 30 µM | > 30 µM | > 30 µM | – | –
CCCC(CCC)C(=O)O [VALPROIC ACID] | > 10 µM | – | > 30 µM | > 10 µM | > 10 µM | > 30 µM | > 10 µM | > 30 µM | > 10 µM | > 30 µM | > 10 µM
CN(C)CCC[C@@]1(c2ccc(F)cc2)OCc2cc(C#N)ccc21 [ESCITALOPRAM] | 22 µM | > 30 µM | – | > 30 µM | > 30 µM | > 30 µM | > 30 µM | > 30 µM | > 30 µM | > 30 µM | –
CN1C(C(=O)Nc2ccccn2)=C(O)c2ccccc2S1(=O)=O [PIROXICAM] | > 10 µM | – | > 30 µM | > 30 µM | > 10 µM | > 10 µM | > 10 µM | > 10 µM | > 10 µM | > 10 µM | > 10 µM
C=C[C@H]1C[N@@]2CC[C@H]1C[C@@H]2[C@@H](O)c1ccnc2ccc(OC)cc12 [QUINIDINE] | – | > 30 µM | 6.2 µM | 18 µM | – | > 30 µM | > 10 µM | > 30 µM | – | – | –
CCN1CCN(Cc2ccc(Nc3ncc(F)c(-c4cc(F)c5nc(C)n(C(C)C)c5c4)n3)nc2)CC1 [ABEMACICLIB] | 19 µM | > 30 µM | > 30 µM | > 30 µM | > 30 µM | > 30 µM | > 30 µM | > 30 µM | > 30 µM | – | –
CC(C)(C)NCC(O)c1cc(O)cc(O)c1 (centres undefined) [TERBUTALINE] | – | – | – | – | – | > 30 µM | – | > 30 µM | – | > 30 µM | –
CC(N)C12CC3CC(CC(C3)C1)C2 (centres undefined) [RIMANTADINE] | > 10 µM | – | > 30 µM | > 10 µM | > 10 µM | > 10 µM | > 10 µM | > 10 µM | > 10 µM | > 10 µM | > 10 µM

Reference: ChEMBL document CHEMBL5291721, “A preclinical secondary pharmacology resource illuminates target-adverse drug reaction associations of marketed drugs” (Nat Commun, 2023)
